Laboratory results: ChEMBL document CHEMBL3774345, “Synthesis of new diarylamides with pyrimidinyl pyridine scaffold and evaluation of their anti-proliferative effect on cancer cell lines” (Bioorg Med Chem Lett, 2016)
pIC50: −log10 of the molar value.

Assays:
[1] = system: A498; assay: Cytotoxicity against human A498 cells after 24 hrs by SRB assay; assay type: functional; settings: A498, 24 h
[2] = Cytotoxicity against human OVCAR5 cells assessed as cell growth at 10^-5 M after 24 hrs by SRB assay; assay type: functional; settings: OVCAR-5, 24 h, read-out: Activity
[3] = Cytotoxicity against human UACC257 cells assessed as cell growth at 10^-6 M after 24 hrs by SRB assay; assay type: functional; settings: UACC-257, 24 h, read-out: Activity
[4] = system: A549; assay: Cytotoxicity against human A549 cells after 24 hrs by SRB assay; assay type: functional; settings: A549, 24 h
[5] = system: A549; assay: Cytotoxicity against human A549 cells assessed as cell growth at 10^-6 M after 24 hrs by SRB assay; assay type: functional; settings: A549, 24 h, read-out: Activity
[6] = Cytotoxicity against human SF268 cells assessed as cell growth at 10^-7 M after 24 hrs by SRB assay; assay type: functional; settings: SF-268, 24 h, read-out: Activity
[7] = system: T47D; assay: Cytotoxicity against human T47D cells after 24 hrs by SRB assay; assay type: functional
[8] = system: MDA-MB-231; assay: Cytotoxicity against human MDA-MB-231 cells assessed as cell growth at 10^-7 M after 24 hrs by SRB assay; assay type: functional; settings: MDA-MB-231, 24 h, read-out: Activity
[9] = Cytotoxicity against human HCC2998 cells assessed as cell growth at 10^-7 M after 24 hrs by SRB assay; assay type: functional; settings: HCC 2998, 24 h, read-out: Activity
[10] = Cytotoxicity against human SKOV3 cells assessed as cell growth at 10^-7 M after 24 hrs by SRB assay; assay type: functional; settings: SK-OV-3, 24 h, read-out: Activity
[11] = Cytotoxicity against human OVCAR5 cells assessed as cell growth at 10^-8 M after 24 hrs by SRB assay; assay type: functional; settings: OVCAR-5, 24 h, read-out: Activity
[12] = Cytotoxicity against human HCT116 cells assessed as cell growth at 10^-5 M after 24 hrs by SRB assay; assay type: functional; settings: HCT-116, 24 h, read-out: Activity
[13] = Cytotoxicity against human TK10 cells assessed as cell growth at 10^-8 M after 24 hrs by SRB assay; assay type: functional; settings: TK-10, 24 h, read-out: Activity
[14] = Cytotoxicity against human Hs 578T cells assessed as cell growth at 10^-4 M after 24 hrs by SRB assay; assay type: functional; settings: read-out: Activity
[15] = system: M14; assay: Cytotoxicity against human M14 cells assessed as cell growth at 10^-5 M after 24 hrs by SRB assay; assay type: functional; settings: M14, 24 h, read-out: Activity
[16] = system: NCI-H460; assay: Cytotoxicity against human NCI-H460 cells assessed as cell growth at 10^-8 M after 24 hrs by SRB assay; assay type: functional; settings: NCI-H460, 24 h, read-out: Activity
[17] = Cytotoxicity against human UACC62 cells after 24 hrs by SRB assay; assay type: functional, cell-based; settings: UACC-62, 24 h
[18] = system: NCI-H460; assay: Cytotoxicity against human NCI-H460 cells after 24 hrs by SRB assay; assay type: functional; settings: NCI-H460, 24 h
[19] = Cytotoxicity against human MOLT4 cells assessed as cell growth at 10^-5 M after 24 hrs by SRB assay; assay type: functional; settings: MOLT-4, 24 h, read-out: Activity
[20] = system: SK-MEL-28; assay: Cytotoxicity against human SK-MEL-28 cells assessed as cell growth at 10^-4 M after 24 hrs by SRB assay; assay type: functional; settings: SK-MEL-28, 24 h, read-out: Activity
[21] = system: NCI-H522; assay: Cytotoxicity against human NCI-H522 cells after 24 hrs by SRB assay; assay type: functional, cell-based; settings: NCI-H522, 24 h
[22] = system: SK-MEL-28; assay: Cytotoxicity against human SK-MEL-28 cells assessed as cell growth at 10^-7 M after 24 hrs by SRB assay; assay type: functional; settings: SK-MEL-28, 24 h, read-out: Activity
[23] = system: NCI-H522; assay: Cytotoxicity against human NCI-H522 cells assessed as cell growth at 10^-7 M after 24 hrs by SRB assay; assay type: functional; settings: NCI-H522, 24 h, read-out: Activity
[24] = Cytotoxicity against human OVCAR8 cells assessed as cell growth at 10^-5 M after 24 hrs by SRB assay; assay type: functional; settings: OVCAR-8, 24 h, read-out: Activity
[25] = system: 786-0; assay: Cytotoxicity against human 786-0 cells assessed as cell growth at 10^-5 M after 24 hrs by SRB assay; assay type: functional; settings: 786-0, 24 h, read-out: Activity
[26] = system: CCRF-CEM; assay: Cytotoxicity against human CCRF-CEM cells after 24 hrs by SRB assay; assay type: functional
[27] = system: SK-MEL-2; assay: Cytotoxicity against human SK-MEL-2 cells after 24 hrs by SRB assay; assay type: functional; settings: SK-MEL-2, 24 h
[28] = Cytotoxicity against human HOP62 cells assessed as cell growth at 10^-8 M after 24 hrs by SRB assay; assay type: functional; settings: HOP-62, 24 h, read-out: Activity
[29] = system: EKVX; assay: Cytotoxicity against human EKVX cells after 24 hrs by SRB assay; assay type: functional
[30] = Cytotoxicity against human LOXIMVI cells assessed as cell growth at 10^-6 M after 24 hrs by SRB assay; assay type: functional; settings: LOX IMVI, read-out: Activity
[31] = system: M14; assay: Cytotoxicity against human M14 cells assessed as cell growth at 10^-4 M after 24 hrs by SRB assay; assay type: functional; settings: M14, 24 h, read-out: Activity
[32] = system: NCI-H23; assay: Cytotoxicity against human NCI-H23 cells assessed as cell growth at 10^-5 M after 24 hrs by SRB assay; assay type: functional; settings: NCI-H23, 24 h, read-out: Activity
[33] = read-out: LC50 (the source's name)
[34] = read-out: pLC50 (the source's name) (converted)

O=C(Nc1cc(-c2cccnc2)nc(NCCCN2CCOCC2)n1)c1cc(Br)cc(C(F)(F)F)c1
GI50 ([1]; read-out: GI50): 3.43 µM
CC50 [1, 33]: 40.5 µM
TGI ([1]; read-out: TGI): 13.4 µM
GI50 ([1]; read-out: pGI50 (converted)): 3.39 µM
CC50 [1, 34]: 40.7 µM
TGI ([1]; read-out: pTGI (converted)): 13.5 µM
growth at 10 µM [2]: 40%
growth at 1 µM [3]: 113%
GI50 ([4]; read-out: GI50): 10.1 µM
CC50 [4, 33]: 48.8 µM
TGI ([4]; read-out: TGI): 22.2 µM
GI50 ([4]; read-out: pGI50 (converted)): 10 µM
CC50 [4, 34]: 49 µM
TGI ([4]; read-out: pTGI (converted)): 22.4 µM
growth at 1 µM [5]: 119%
growth at 0.1 µM [6]: 94%
GI50 ([7]; read-out: GI50): 3.72 µM
CC50 [7, 33]: 48.5 µM
TGI ([7]; read-out: TGI): 16.1 µM
GI50 ([7]; read-out: pGI50 (converted)): 3.72 µM
CC50 [7, 34]: 49 µM
TGI ([7]; read-out: pTGI (converted)): 16.2 µM
growth at 0.1 µM [8]: 87%
growth at 0.1 µM [9]: 100%
growth at 0.1 µM [10]: 93%
growth at 0.01 µM [11]: 92%
growth at 10 µM [12]: -44%
growth at 0.01 µM [13]: 91%
growth at 100 µM [14]: -35%
growth at 10 µM [15]: -80%
growth at 0.01 µM [16]: 99%
GI50 [17]: 1.95 µM
CC50 [17, 33]: 9.92 µM
TGI ([17]; read-out: TGI): 4.38 µM
CC50 [17, 34]: 10 µM
TGI ([17]; read-out: pTGI (converted)): 4.37 µM
GI50 ([18]; read-out: GI50): 2.97 µM
CC50 [18, 33]: 44.1 µM
TGI ([18]; read-out: TGI): 8.94 µM
GI50 ([18]; read-out: pGI50 (converted)): 2.95 µM
CC50 [18, 34]: 43.7 µM
TGI ([18]; read-out: pTGI (converted)): 8.91 µM
growth at 10 µM [19]: 9%
growth at 100 µM [20]: -77%
pIC50 [21]: 5.71
GI50 ([21]; read-out: GI50): 1.95 µM
CC50 [21, 33]: 23.3 µM
TGI ([21]; read-out: TGI): 5.31 µM
GI50 ([21]; read-out: pGI50 (converted)): 1.95 µM
CC50 [21, 34]: 23.4 µM
TGI ([21]; read-out: pTGI (converted)): 5.37 µM
growth at 0.1 µM [22]: 91%
growth at 0.1 µM [23]: 92%
growth at 10 µM [24]: -7%
growth at 10 µM [25]: -80%
GI50 ([26]; read-out: GI50): 3.54 µM
CC50 [26, 33]: 93.4 µM
TGI ([26]; read-out: TGI): 12.9 µM
GI50 ([26]; read-out: pGI50 (converted)): 3.55 µM
CC50 [26, 34]: 93.3 µM
TGI ([26]; read-out: pTGI (converted)): 12.9 µM
GI50 ([27]; read-out: GI50): 4.52 µM
CC50 [27, 33]: 45.8 µM
TGI ([27]; read-out: TGI): 17 µM
GI50 ([27]; read-out: pGI50 (converted)): 4.47 µM
CC50 [27, 34]: 45.7 µM
TGI ([27]; read-out: pTGI (converted)): 17 µM
growth at 0.01 µM [28]: 94%
GI50 ([29]; read-out: GI50): 2.72 µM
CC50 [29, 33]: 42.7 µM
TGI ([29]; read-out: TGI): 14.4 µM
GI50 ([29]; read-out: pGI50 (converted)): 2.69 µM
CC50 [29, 34]: 42.7 µM
TGI ([29]; read-out: pTGI (converted)): 14.5 µM
growth at 1 µM [30]: 88%
growth at 100 µM [31]: -71%
growth at 10 µM [32]: 18%
